In patent US20060166900A1, “Salt of morphine-6-glucuronide” (CeNeS Limited, priority 2002, published 2006):

Experiments:
Type in all cases: physicochemical
[1] = Stability indicating HPLC assay and related substances on storage (Example 3)
Method: Assay (% w/w) and related substances determination
(§1) Each test material was stored between 2-8*C prior to placing on stability. Each material was sub-divided into 900 mg aliquots, transferred to brown opaque HDPE plastic bottles and flushed with Argon prior to sealing. Sufficient samples were provided for each time point as well as spares for each storage condition. The samples were placed in appropriate incubators previously commissioned at storage conditions 25° C./60% RH, 40° C./75% RH and 60° C.
Testing Procedures Test for Identity Content and Impurities
Testing was performed in duplicate (2×25 mg) in accordance with a stability indicating HPLC assay method. The assay results were reported as M6G as is, M6G as the anhydrous, solvent free material and the anhydrous solvent free material corrected for the salt form using the relevant conversion factor.

[2] = Visual appearance on storage (Example 3)
Method: as §1
The samples were stored for analysis according to the following table: […]

[3] = Water content by Karl Fisher analysis on storage (Example 3)
Method: Water content (% w/w) by Karl Fisher analysis
as §1
Water Content by Karl Fisher Analysis
Water content was determined in duplicate on an aliquot of equilibrated material (approximately 100 mg) using a Tritrino 720 KFS Titrator.

[4] = Colour of solution by visible spectrophotometry on storage (Example 3); details: 5% w/v solution in water
Method: Colour of solution by UV spectrophotometry.
as §1
Colour by Visible Spectrophotometry
A 5% w/v solution of test material was prepared in water and the absorbance measured at 420 nm in a 1 cm silica cell using a Unicam UV4 Visible/UV spectrophotometer.

CN1CCC23c4c5ccc(O)c4OC2C(OC2OC(C(=O)O)C(O)C(O)C2O)C=CC3C1C5.O=P(O)(O)O (stereo not shown) [Morphine-6-glucuronide phosphate]
Known Related Substances HN33177 ([1]; 1 month, 25° C./60% RH): 0.78%
Known Related Substances HN67003 ([1]; 1 month, 25° C./60% RH): 0.04%
Known Related Substances HN75083 ([1]; 1 month, 25° C./60% RH): 0.03%
M6G Assay, Anhydrous basis ([1]; 1 month, 25° C./60% RH): 91.37 % w/w
M6G Assay, As is basis ([1]; 1 month, 25° C./60% RH): 84.57 % w/w
M6G Assay, Corrected for the salt form ([1]; 1 month, 25° C./60% RH): 110.76 % w/w
Total Known ([1]; 1 month, 25° C./60% RH): 0.85%
Total Related Substances ([1]; 1 month, 25° C./60% RH): 1.41%
Total Unknown ([1]; 1 month, 25° C./60% RH): 0.56%
Known Related Substances HN33177 ([1]; 1 month, 40° C./75% RH): 0.70%
Known Related Substances HN67003 ([1]; 1 month, 40° C./75% RH): 0.53%
Known Related Substances HN75083 ([1]; 1 month, 40° C./75% RH): 0.14%
M6G Assay, Anhydrous basis ([1]; 1 month, 40° C./75% RH): 92.00 % w/w
M6G Assay, As is basis ([1]; 1 month, 40° C./75% RH): 80.20 % w/w
M6G Assay, Corrected for the salt form ([1]; 1 month, 40° C./75% RH): 111.52 % w/w
Total Known ([1]; 1 month, 40° C./75% RH): 1.37%
Total Related Substances ([1]; 1 month, 40° C./75% RH): 3.44%
Total Unknown ([1]; 1 month, 40° C./75% RH): 2.07%
Known Related Substances HN33177 ([1]; 1 month, 60° C.): 0.70%
Known Related Substances HN67003 ([1]; 1 month, 60° C.): 0.90%
Known Related Substances HN75076 ([1]; 1 month, 60° C.): 0.03%
Known Related Substances HN75083 ([1]; 1 month, 60° C.): 0.27%
Known Related Substances Morphine ([1]; 1 month, 60° C.): 0.18%
M6G Assay, Anhydrous basis ([1]; 1 month, 60° C.): 88.33 % w/w
M6G Assay, As is basis ([1]; 1 month, 60° C.): 80.69 % w/w
M6G Assay, Corrected for the salt form ([1]; 1 month, 60° C.): 107.08 % w/w
Total Known ([1]; 1 month, 60° C.): 2.08%
Total Related Substances ([1]; 1 month, 60° C.): 5.43%
Total Unknown ([1]; 1 month, 60° C.): 3.35%
stability based on % w/w assay ([1]; 3 month assay data): most stable
Known Related Substances HN33177 ([1]; 3 months, 25° C./60% RH): 0.78%
Known Related Substances HN67003 ([1]; 3 months, 25° C./60% RH): 0.16%
Known Related Substances HN75076 ([1]; 3 months, 25° C./60% RH): 0.03%
Known Related Substances HN75083 ([1]; 3 months, 25° C./60% RH): 0.19%
Known Related Substances Morphine ([1]; 3 months, 25° C./60% RH): 0.07%
M6G Assay, Anhydrous basis ([1]; 3 months, 25° C./60% RH): 91.16 % w/w
M6G Assay, As is basis ([1]; 3 months, 25° C./60% RH): 84.25 % w/w
M6G Assay, Corrected for the salt form ([1]; 3 months, 25° C./60% RH): 110.50 % w/w
Total Known ([1]; 3 months, 25° C./60% RH): 1.23%
Total Related Substances ([1]; 3 months, 25° C./60% RH): 2.31%
Total Unknown ([1]; 3 months, 25° C./60% RH): 1.08%
Known Related Substances HN33177 ([1]; 3 months, 40° C./75% RH): 0.59%
Known Related Substances HN67003 ([1]; 3 months, 40° C./75% RH): 0.75%
Known Related Substances HN75076 ([1]; 3 months, 40° C./75% RH): 0.12%
Known Related Substances HN75083 ([1]; 3 months, 40° C./75% RH): 0.06%
Known Related Substances Morphine ([1]; 3 months, 40° C./75% RH): 0.32%
M6G Assay, Anhydrous basis ([1]; 3 months, 40° C./75% RH): 92.40 % w/w
M6G Assay, As is basis ([1]; 3 months, 40° C./75% RH): 79.02 % w/w
M6G Assay, Corrected for the salt form ([1]; 3 months, 40° C./75% RH): 112.01 % w/w
Total Known ([1]; 3 months, 40° C./75% RH): 1.84%
Total Related Substances ([1]; 3 months, 40° C./75% RH): 5.99%
Total Unknown ([1]; 3 months, 40° C./75% RH): 4.15%
Known Related Substances HN33177 ([1]; Initial): 0.75%
Known Related Substances HN67003 ([1]; Initial): 0.04%
Known Related Substances HN75083 ([1]; Initial): 0.07%
M6G Assay, Anhydrous basis ([1]; Initial): 89.21 % w/w
M6G Assay, As is basis ([1]; Initial): 83.90 % w/w
M6G Assay, Corrected for the salt form ([1]; Initial): 108.12 % w/w
Total Known ([1]; Initial): 0.86%
Total Related Substances ([1]; Initial): 0.86%
Total Unknown ([1]; Initial): 0.00%
assay values throughout the study ([1]; all storage conditions, material a phosphate/base mixture): around 110%
Appearance ([2]; 1 month, 25° C./60% RH): White crystalline powder
Appearance ([2]; 1 month, 40° C./75% RH): Slightly yellow crystalline powder
Appearance ([2]; 1 month, 60° C.): Pale yellow crystalline powder
Appearance ([2]; 3 months, 25° C./60% RH): White crystalline powder
Appearance ([2]; 3 months, 25° C./60% RH, listed as phosphate): white crystalline solids
Appearance ([2]; 3 months, 40° C./75% RH): Slightly yellow crystalline powder
Appearance ([2]; Initial): White crystalline powder
Moisture ([3]; 1 month, 25° C./60% RH): 3.91 % w/w
Moisture ([3]; 1 month, 40° C./75% RH): 9.28 % w/w
Moisture ([3]; 1 month, 60° C.): 5.12 % w/w
Moisture ([3]; 3 months, 25° C./60% RH): 5.06 % w/w
Moisture ([3]; 3 months, 40° C./75% RH): 11.88 % w/w
increase in moisture content compared to initial ([3]; 40° C./75% RH): around 8%
Moisture ([3]; Initial): 3.12 % w/w
Colour ([4]; 1 month, 25° C./60% RH): 0.053 Abs@420 nm
Colour ([4]; 1 month, 40° C./75% RH): 0.308 Abs@420 nm
Colour ([4]; 1 month, 60° C.): 0.787 Abs@420 nm
Colour ([4]; 3 months, 25° C./60% RH): 0.098 Abs@420 nm
Colour ([4]; 3 months, 40° C./75% RH): 0.878 Abs@420 nm
Colour ([4]; Initial): 0.034 Abs@420 nm
